The supplement of paper PMC10733146

Legend:
Assay in all cases: viability relative to DMSO control (fraction); higher = less drug effect (more viable cells)
Settings in all cases: 48 h
Panobinostat = compound: Cc1[nH]c2ccccc2c1CCNCc1ccc(/C=C/C(=O)NO)cc1 [Panobinostat]
In short: (§1)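 Viability is given as CellTiter-Glo luminescence relative to the median of 16 inner DMSO wells. Fresh or cryopreserved primary mononuclear tumour cells from blood, bone marrow (both Ficoll-isolated) or processed lymph node were plated at 4 × 10^4 cells per well in 384-well plates against five pre-plated compound concentrations, one well each. Incubation lasted 48 h at 37 °C and 5% CO2 in RPMI-1640 with penicillin/streptomycin, L-glutamine and human serum.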

MLN-120B = compound: COc1c(Cl)cc2c([nH]c3cnccc32)c1NC(=O)c1cccnc1C [MLN-120B]
In short: as §1

ONO-4059 = compound: CC#CC(=O)N1CC[C@@H](n2c(=O)n(-c3ccc(Oc4ccccc4)cc3)c3c(N)ncnc32)C1 [ONO-4059]
In short: as §1

BI6727 = compound: CC[C@@H]1C(=O)N(C)c2cnc(Nc3ccc(C(=O)N[C@H]4CC[C@H](N5CCN(CC6CC6)CC5)CC4)cc3OC)nc2N1C(C)C [BI6727]
In short: as §1

Vorinostat = compound: O=C(CCCCCCC(=O)Nc1ccccc1)NO [Vorinostat]
In short: as §1

ERK5-IN-1 = compound: CCOc1cc(C(=O)N2CCC(N3CCN(C)CC3)CC2)ccc1Nc1ncc2c(n1)N(C1CCCC1)c1ccccc1C(=O)N2C [ERK5-IN-1]
In short: as §1

Obatoclax mesylate = compound: COC1=CC(c2cc3ccccc3[nH]2)=N/C1=C\c1[nH]c(C)cc1C [Obatoclax mesylate]
In short: as §1

Ribociclib = compound: CN(C)C(=O)c1cc2cnc(Nc3ccc(N4CCNCC4)cn3)nc2n1C1CCCC1 [Ribociclib]
In short: as §1

Vincristine = compound: CC[C@]1(O)C[C@H]2CN(CCc3c([nH]c4ccccc34)[C@@](C(=O)OC)(c3cc4c(cc3OC)N(C=O)[C@H]3[C@@](O)(C(=O)OC)[C@H](OC(C)=O)[C@]5(CC)C=CCN6CC[C@]43[C@@H]65)C2)C1 [Vincristine]
In short: as §1

TMP269 = compound: O=C(NCC1(c2nc(-c3ccccc3)cs2)CCOCC1)c1cccc(-c2noc(C(F)(F)F)n2)c1 [TMP269]
In short: as §1

Vemurafenib = compound: CCCS(=O)(=O)Nc1ccc(F)c(C(=O)c2c[nH]c3ncc(-c4ccc(Cl)cc4)cc23)c1F [Vemurafenib]
In short: as §1

Pralatrexate = compound: C#CCC(Cc1cnc2nc(N)nc(N)c2n1)c1ccc(C(=O)N[C@@H](CCC(=O)O)C(=O)O)cc1 [Pralatrexate]
In short: as §1

[1] = compound: CC(C)(C)OC(=O)Nc1ccc(-c2cc(C(=O)NCCCCCCC(=O)NO)no2)cc1
In short: as §1

Cladribine = compound: Nc1nc(Cl)nc2c1ncn2[C@H]1C[C@H](O)[C@@H](CO)O1 [Cladribine]
In short: as §1

AZD7762 = compound: NC(=O)Nc1cc(-c2cccc(F)c2)sc1C(=O)N[C@H]1CCCNC1 [AZD7762]
In short: as §1

Pentostatin = compound: OC[C@H]1O[C@@H](n2cnc3c2N=CNC[C@H]3O)C[C@@H]1O [Pentostatin]
In short: as §1

Test System primary DLBCL patient cells (S076) has a viability (Panobinostat; 0.00064 µM) of 1.05, a viability (Panobinostat; 0.0032 µM) of 0.78 and a viability (Panobinostat; 0.016 µM) of 0.285. For the same test system, the viability (Panobinostat; 0.08 µM) was 0.203, the viability (Panobinostat; 0.4 µM) was 0.169 and the viability (MLN-120B; 0.024 µM) was 1.07. It also gave a viability (MLN-120B; 0.12 µM) of 1.07, a viability (MLN-120B; 0.6 µM) of 1.05 and a viability (MLN-120B; 3 µM) of 0.997. It also gave a viability (MLN-120B; 15 µM) of 0.861, a viability (ONO-4059; 0.0016 µM) of 1.03 and a viability (ONO-4059; 0.008 µM) of 1.04. The viability (ONO-4059; 0.04 µM) was 1.08, the viability (ONO-4059; 0.2 µM) was 0.992 and the viability (ONO-4059; 1 µM) was 0.929. It also gave a viability (BI6727; 0.024 µM) of 1.07, a viability (BI6727; 0.12 µM) of 0.971 and a viability (BI6727; 0.6 µM) of 0.881. The viability (BI6727; 3 µM) was 0.614, the viability (BI6727; 15 µM) was 0.372 and the viability (Vorinostat; 0.016 µM) was 1. For the same test system, the viability (Vorinostat; 0.08 µM) was 0.884, the viability (Vorinostat; 0.4 µM) was 0.734 and the viability (Vorinostat; 2 µM) was 0.417. The viability (Vorinostat; 10 µM) was 0.198, the viability (ERK5-IN-1; 0.024 µM) was 1.09 and the viability (ERK5-IN-1; 0.12 µM) was 1. For the same test system, the viability (ERK5-IN-1; 0.6 µM) was 0.876, the viability (ERK5-IN-1; 3 µM) was 0.755 and the viability (ERK5-IN-1; 15 µM) was 0.436. The viability (Obatoclax mesylate; 0.024 µM) was 0.922, the viability (Obatoclax mesylate; 0.12 µM) was 1.14 and the viability (Obatoclax mesylate; 0.6 µM) was 0.746. The viability (Obatoclax mesylate; 3 µM) was 0.541, the viability (Obatoclax mesylate; 15 µM) was 0.173 and the viability (Ribociclib; 0.024 µM) was 1.25. It also gave a viability (Ribociclib; 0.12 µM) of 1.2, a viability (Ribociclib; 0.6 µM) of 1.11 and a viability (Ribociclib; 3 µM) of 0.986. It also gave a viability (Ribociclib; 15 µM) of 0.586, a viability (Vincristine; 0.016 µM) of 0.726 and a viability (Vincristine; 0.08 µM) of 0.561. The viability (Vincristine; 0.4 µM) was 0.519, the viability (Vincristine; 2 µM) was 0.44 and the viability (Vincristine; 10 µM) was 0.363. For the same test system, the viability (TMP269; 0.024 µM) was 1.17, the viability (TMP269; 0.12 µM) was 1.07 and the viability (TMP269; 0.6 µM) was 1.15. It also gave a viability (TMP269; 3 µM) of 0.94, a viability (TMP269; 15 µM) of 0.959 and a viability (Vemurafenib; 0.024 µM) of 0.8. For the same test system, the viability (Vemurafenib; 0.12 µM) was 0.988, the viability (Vemurafenib; 0.6 µM) was 0.83 and the viability (Vemurafenib; 3 µM) was 1.04. It also gave a viability (Vemurafenib; 15 µM) of 1.05, a viability (Pralatrexate; 0.024 µM) of 1.01 and a viability (Pralatrexate; 0.12 µM) of 0.756. It also gave a viability (Pralatrexate; 0.6 µM) of 0.838, a viability (Pralatrexate; 3 µM) of 0.978 and a viability (Pralatrexate; 15 µM) of 0.843. It also gave a viability ([1]; 0.024 µM) of 1.05, a viability ([1]; 0.12 µM) of 0.81 and a viability ([1]; 0.6 µM) of 0.628. For the same test system, the viability ([1]; 3 µM) was 0.313, the viability ([1]; 15 µM) was 0.119 and the viability (Cladribine; 0.024 µM) was 0.475. For the same test system, the viability (Cladribine; 0.12 µM) was 0.331, the viability (Cladribine; 0.6 µM) was 0.138 and the viability (Cladribine; 3 µM) was 0.0919. The viability (Cladribine; 15 µM) was 0.0759, the viability (AZD7762; 0.024 µM) was 0.679 and the viability (AZD7762; 0.12 µM) was 0.69. For the same test system, the viability (AZD7762; 0.6 µM) was 0.55, the viability (AZD7762; 3 µM) was 0.481 and the viability (AZD7762; 15 µM) was 0.348. It also gave a viability (Pentostatin; 0.03 µM) of 1.04, a viability (Pentostatin; 0.15 µM) of 0.808 and a viability (Pentostatin; 0.75 µM) of 0.824. It also gave a viability (Pentostatin; 3.75 µM) of 0.6 and a viability (Pentostatin; 18.76 µM) of 0.618.

primary T-NHL patient cells (S058) was tested, and the viability (Panobinostat; 0.00064 µM) was 1.24, the viability (Panobinostat; 0.0032 µM) was 0.886 and the viability (Panobinostat; 0.016 µM) was 0.292. It also gave a viability (Panobinostat; 0.08 µM) of 0.302, a viability (Panobinostat; 0.4 µM) of 0.243 and a viability (MLN-120B; 0.024 µM) of 0.984. For the same test system, the viability (MLN-120B; 0.12 µM) was 1.15, the viability (MLN-120B; 0.6 µM) was 1.05 and the viability (MLN-120B; 3 µM) was 1.16. The viability (MLN-120B; 15 µM) was 0.908, the viability (ONO-4059; 0.0016 µM) was 1.06 and the viability (ONO-4059; 0.008 µM) was 1.25. For the same test system, the viability (ONO-4059; 0.04 µM) was 1.03, the viability (ONO-4059; 0.2 µM) was 1.16 and the viability (ONO-4059; 1 µM) was 1.07. For the same test system, the viability (BI6727; 0.024 µM) was 0.939, the viability (BI6727; 0.12 µM) was 0.885 and the viability (BI6727; 0.6 µM) was 0.757. For the same test system, the viability (BI6727; 3 µM) was 0.506, the viability (BI6727; 15 µM) was 0.3 and the viability (Vorinostat; 0.016 µM) was 1.16. It also gave a viability (Vorinostat; 0.08 µM) of 0.894, a viability (Vorinostat; 0.4 µM) of 0.789 and a viability (Vorinostat; 2 µM) of 0.381. The viability (Vorinostat; 10 µM) was 0.274, the viability (ERK5-IN-1; 0.024 µM) was 1.12 and the viability (ERK5-IN-1; 0.12 µM) was 1.15. For the same test system, the viability (ERK5-IN-1; 0.6 µM) was 0.851, the viability (ERK5-IN-1; 3 µM) was 0.59 and the viability (ERK5-IN-1; 15 µM) was 0.403. It also gave a viability (Obatoclax mesylate; 0.024 µM) of 0.985, a viability (Obatoclax mesylate; 0.12 µM) of 0.916 and a viability (Obatoclax mesylate; 0.6 µM) of 0.783. For the same test system, the viability (Obatoclax mesylate; 3 µM) was 0.533, the viability (Obatoclax mesylate; 15 µM) was 0.227 and the viability (Ribociclib; 0.024 µM) was 1.05. For the same test system, the viability (Ribociclib; 0.12 µM) was 1.14, the viability (Ribociclib; 0.6 µM) was 1.07 and the viability (Ribociclib; 3 µM) was 1.01. For the same test system, the viability (Ribociclib; 15 µM) was 1.06, the viability (Vincristine; 0.016 µM) was 0.646 and the viability (Vincristine; 0.08 µM) was 0.417. It also gave a viability (Vincristine; 0.4 µM) of 0.364, a viability (Vincristine; 2 µM) of 0.302 and a viability (Vincristine; 10 µM) of 0.246. It also gave a viability (TMP269; 0.024 µM) of 1.05, a viability (TMP269; 0.12 µM) of 0.994 and a viability (TMP269; 0.6 µM) of 1.01. For the same test system, the viability (TMP269; 3 µM) was 0.892, the viability (TMP269; 15 µM) was 0.836 and the viability (Vemurafenib; 0.024 µM) was 0.878. For the same test system, the viability (Vemurafenib; 0.12 µM) was 0.957, the viability (Vemurafenib; 0.6 µM) was 0.911 and the viability (Vemurafenib; 3 µM) was 0.982. It also gave a viability (Vemurafenib; 15 µM) of 0.96, a viability (Pralatrexate; 0.024 µM) of 1.15 and a viability (Pralatrexate; 0.12 µM) of 0.861. The viability (Pralatrexate; 0.6 µM) was 0.833, the viability (Pralatrexate; 3 µM) was 0.902 and the viability (Pralatrexate; 15 µM) was 0.833. It also gave a viability ([1]; 0.024 µM) of 0.982, a viability ([1]; 0.12 µM) of 0.854 and a viability ([1]; 0.6 µM) of 0.611. It also gave a viability ([1]; 3 µM) of 0.355, a viability ([1]; 15 µM) of 0.258 and a viability (Cladribine; 0.024 µM) of 0.857. For the same test system, the viability (Cladribine; 0.12 µM) was 0.441, the viability (Cladribine; 0.6 µM) was 0.147 and the viability (Cladribine; 3 µM) was 0.112. For the same test system, the viability (Cladribine; 15 µM) was 0.0704, the viability (AZD7762; 0.024 µM) was 1.05 and the viability (AZD7762; 0.12 µM) was 1.16. The viability (AZD7762; 0.6 µM) was 0.936, the viability (AZD7762; 3 µM) was 1.02 and the viability (AZD7762; 15 µM) was 0.719. For the same test system, the viability (Pentostatin; 0.03 µM) was 1.1, the viability (Pentostatin; 0.15 µM) was 1.06 and the viability (Pentostatin; 0.75 µM) was 0.988. It also gave a viability (Pentostatin; 3.75 µM) of 0.816 and a viability (Pentostatin; 18.76 µM) of 0.858.
